From paper PMC10648852, “Molecular drivers of resistance to sulbactam-durlobactam in contemporary clinical isolates of Acinetobacter baumannii” (Antimicrobial Agents and Chemotherapy, 2023)
Where two headings read alike, the source gives them in different places.

Tests used:
[1] = tested on: ABC clinical isolates with SUL-DUR MIC > 4 µg/mL; assay: microbe, parasite or virus in culture; assay type: cell-based, Acinetobacter baumannii-calcoaceticus complex
Procedure, shortened: (§1)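 Broth microdilution MICs following CLSI methods, interpreted with CLSI breakpoints where available. Sulbactam tested as twofold dilutions combined with fixed 4 µg/mL durlobactam.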

[2] = tested on: A. baumannii wild-type PBP3; assay: Acylation rate constant (kinact/Ki), fluorescence anisotropy competition with BOCILLIN; settings: Wildtype PBP3
[3] = tested on: A. pittii clinical isolates; assay: microbe, parasite or virus in culture; assay type: cell-based; settings: Acinetobacter pittii
Procedure, shortened: as §1

[4] = tested on: A. nosocomialis clinical isolate; assay: microbe, parasite or virus in culture; assay type: cell-based; settings: Acinetobacter nosocomialis, isolate ARC7023 (IHMA 2118812), France, BSI, 2019, read-out: MIC
Procedure, shortened: as §1

[5] = tested on: A. baumannii clinical isolates; assay: microbe, parasite or virus in culture; assay type: cell-based; settings: Acinetobacter baumannii
Procedure, shortened: as §1

In the case of `C[C@@H](O)[C@H]1C(=O)N2C(C(=O)O)=C(SCCN=CN)C[C@H]12` [imipenem], the “%NS (% non-susceptibility)” value ([1]; 64 non-clonal ABC isolates, 2023 CLSI breakpoints plus FDA breakpoint of 4 µg/mL for SUL-DUR) is reported as 100%, the MIC50 ([1]; Acinetobacter) is reported as over 64 µg/mL and the MIC90 ([1]; Acinetobacter) is reported as over 64 µg/mL. For the same compound, the MIC ([1]; Acinetobacter, read-out: MIC Max) was over 64 µg/mL, the MIC ([1]; Acinetobacter, read-out: MIC Min) was 16 µg/mL and the “% WT” value [2] was 100%. For the same compound, the “k inact/K i” value ([2]; average ± SD) was 450 ± 60 ([10]) M^-1s^-1, the MIC ([3]; isolate ARC6949 (IHMA 1898982), Romania, RTI, 2018, read-out: MIC) was over 64 µg/mL and the MIC ([3]; isolate ARC6951 (IHMA 1776233), Philippines, RTI, 2018, read-out: MIC) was over 64 µg/mL. It also gave an MIC ([3]; isolate ARC6952 (IHMA 1899008), Romania, RTI, 2018, read-out: MIC) of over 64 µg/mL, an MIC ([3]; isolate ARC7087 (IHMA 2212062), Colombia, BSI, 2020, read-out: MIC) of 64 µg/mL and an MIC [4] of 64 µg/mL. The MIC ([5]; isolate ARC6644 (IHMA 1420327), Mexico, UTI, 2016, read-out: MIC) was 16 µg/mL, the MIC ([5]; isolate ARC6645 (IHMA 1435703), France, UTI, 2016, read-out: MIC) was over 64 µg/mL and the MIC ([5]; isolate ARC6646 (IHMA 1484127), United States, RTI, 2016, read-out: MIC) was 64 µg/mL. It also gave an MIC ([5]; isolate ARC6647 (IHMA 1386786), Argentina, RTI, 2016, read-out: MIC) of over 64 µg/mL, an MIC ([5]; isolate ARC6648 (IHMA 1407634), Spain, RTI, 2016, read-out: MIC) of over 64 µg/mL and an MIC ([5]; isolate ARC6650 (IHMA 1457337), Argentina, RTI, 2016, read-out: MIC) of 32 µg/mL. For the same compound, the MIC ([5]; isolate ARC6652 (IHMA 1465642), Belgium, RTI, 2016, read-out: MIC) was 64 µg/mL, the MIC ([5]; isolate ARC6653 (IHMA 1308777), Vietnam, RTI, 2016, read-out: MIC) was 64 µg/mL and the MIC ([5]; isolate ARC6799 (IHMA 1562935), Spain, UTI, 2017, read-out: MIC) was 64 µg/mL. It also gave an MIC ([5]; isolate ARC6800 (IHMA 1557526), Turkey, RTI, 2017, read-out: MIC) of 64 µg/mL, an MIC ([5]; isolate ARC6801 (IHMA 1662094), Thailand, RTI, 2017, read-out: MIC) of over 64 µg/mL and an MIC ([5]; isolate ARC6802 (IHMA 1557073), Spain, UTI, 2017, read-out: MIC) of 64 µg/mL. For the same compound, the MIC ([5]; isolate ARC6803 (IHMA 1589408), Belgium, UTI, 2017, read-out: MIC) was 64 µg/mL, the MIC ([5]; isolate ARC6805 (IHMA 1558650), United States, RTI, 2017, read-out: MIC) was 32 µg/mL and the MIC ([5]; isolate ARC6808 (IHMA 1557168), Spain, RTI, 2017, read-out: MIC) was 64 µg/mL. The MIC ([5]; isolate ARC6809 (IHMA 1699528), Guatemala, RTI, 2017, read-out: MIC) was over 64 µg/mL, the MIC ([5]; isolate ARC6810 (IHMA 1699548), Guatemala, RTI, 2017, read-out: MIC) was over 64 µg/mL and the MIC ([5]; isolate ARC6812 (IHMA 1699530), Guatemala, RTI, 2017, read-out: MIC) was 64 µg/mL. For the same compound, the MIC ([5]; isolate ARC6813 (IHMA 1699543), Guatemala, UTI, 2017, read-out: MIC) was over 64 µg/mL, the MIC ([5]; isolate ARC6814 (IHMA 1699512), Guatemala, RTI, 2017, read-out: MIC) was over 64 µg/mL and the MIC ([5]; isolate ARC6815 (IHMA 1699513), Guatemala, RTI, 2017, read-out: MIC) was over 64 µg/mL. The MIC ([5]; isolate ARC6816 (IHMA 1699521), Guatemala, RTI, 2017, read-out: MIC) was over 64 µg/mL, the MIC ([5]; isolate ARC6817 (IHMA 1699523), Guatemala, RTI, 2017, read-out: MIC) was over 64 µg/mL and the MIC ([5]; isolate ARC6818 (IHMA 1683261), Thailand, RTI, 2017, read-out: MIC) was over 64 µg/mL. For the same compound, the MIC ([5]; isolate ARC6819 (IHMA 1683267), Thailand, RTI, 2017, read-out: MIC) was over 64 µg/mL, the MIC ([5]; isolate ARC6820 (IHMA 1647876), Argentina, RTI, 2017, read-out: MIC) was 64 µg/mL and the MIC ([5]; isolate ARC6821 (IHMA 1699517), Guatemala, RTI, 2017, read-out: MIC) was over 64 µg/mL. For the same compound, the MIC ([5]; isolate ARC6822 (IHMA 1637626), Guatemala, RTI, 2017, read-out: MIC) was 64 µg/mL, the MIC ([5]; isolate ARC6823 (IHMA 1620872), Greece, SSSI, 2017, read-out: MIC) was 64 µg/mL and the MIC ([5]; isolate ARC6824 (IHMA 1625487), Argentina, BSI, 2017, read-out: MIC) was 64 µg/mL. It also gave an MIC ([5]; isolate ARC6937 (IHMA 1562926), Spain, UTI, 2017, read-out: MIC) of 64 µg/mL.
